System: opioid-dependent participants
Experiment: Treatment emergent adverse events in opioid-dependent participants (Phase IB)
Type: in vivo, human
Procedure: This example is to illustrate that noribogaine can be administered at a therapeutic dosing while maintaining an acceptable QT interval.
See PCT Application No. PCT/US2013/069235, filed Nov. 8, 2013, which is incorporated herein by reference in its entirety.
Three cohorts of nine (9) subjects (6 administered noribogaine and 3 administered placebo in each cohort) were evaluated for tolerability, pharmacokinetics, and efficacy. Cohort 1 received a single dose of 60 mg noribogaine or placebo. Cohort 2 received a single dose of 120 mg noribogaine or placebo. Cohort 3 received a single dose of 180 mg noribogaine or placebo.

## CC[C@H]1CC2C[C@H]3c4[nH]c5ccc(O)cc5c4CCN(C2)C13 [noribogaine]
60 mg (N = 6)
  Adverse event: Catheter Site Infection: 0
  Adverse event: Catheter Site Pain: 0
  Adverse event: Catheter Site Related Reaction: 0
  Adverse event: Cellulitis: 0
  Adverse event: Diarrhoea: 0
  Adverse event: Dry Mouth: 0
  Adverse event: Ear and Labyrinth Disorders: 0
  Adverse event: Epistaxis: 0
  Adverse event: Euphoric Mood: 0
  Adverse event: General Disorders and Administration Site Conditions: 0
  Adverse event: Hyperaesthesia: 0
  Adverse event: Infections and Infestations: 0
  Adverse event: Limb Discomfort: 0
  Adverse event: Malaise: 0
  Adverse event: Nausea: 0
  Adverse event: Oropharyngeal Pain: 0
  Adverse event: Pseudoparalysis: 0
  Adverse event: Respiratory, Thoracic and Mediastinal Disorders: 0
  Adverse event: Rhinorrhoea: 0
  Adverse event: Skin Discomfort: 0
  Adverse event: Skin Irritation: 0
  Adverse event: Skin and Subcutaneous Tissue Disorders: 0
  Adverse event: Somnoience: 0
  Adverse event: Tinnitus: 0
  Adverse event: Tremor: 0
  Adverse event: Urinary Tract Infection: 0
  Adverse event: Vomiting: 0
120 mg (N = 6)
  Adverse event: Back Pain: 0
  Adverse event: Catheter Site Infection: 0
  Adverse event: Catheter Site Related Reaction: 0
  Adverse event: Depressed Mood: 0
  Adverse event: Dry Eye: 0
  Adverse event: Dyspepsia: 0
  Adverse event: Euphoric Mood: 0
  Adverse event: Limb Discomfort: 0
  Adverse event: Malaise: 0
  Adverse event: Musculoskeletal and Connective Tissue Disorders: 0
  Adverse event: Psychiatric Disorders: 0
  Adverse event: Somnoience: 0
  Adverse event: Urinary Tract Infection: 0
180 mg (N = 6)
  Adverse event: Catheter Site Infection: 0
  Adverse event: Catheter Site Pain: 0
  Adverse event: Depressed Mood: 0
  Adverse event: Diarrhoea: 0
  Adverse event: Dry Eye: 0
  Adverse event: Dyspepsia: 0
  Adverse event: Ear and Labyrinth Disorders: 0
  Adverse event: Epistaxis: 0
  Adverse event: Euphoric Mood: 0
  Adverse event: Hyperaesthesia: 0
  Adverse event: Malaise: 0
  Adverse event: Oropharyngeal Pain: 0
  Adverse event: Pseudoparalysis: 0
  Adverse event: Psychiatric Disorders: 0
  Adverse event: Respiratory, Thoracic and Mediastinal Disorders: 0
  Adverse event: Rhinorrhoea: 0
  Adverse event: Skin Discomfort: 0
  Adverse event: Skin Irritation: 0
  Adverse event: Skin and Subcutaneous Tissue Disorders: 0
  Adverse event: Somnoience: 0
  Adverse event: Tinnitus: 0
  Adverse event: Tremor: 0
60, 120 or 180 mg single dose
  hallucinatory effects: no hallucinatory effects

Reference: patent US20160038505A1, “METHODS AND COMPOSITIONS FOR TREATING IMPULSE CONTROL DISORDER, ANXIETY-RELATED DISORDERS, VIOLENCE AND/OR ANGER, OR REGULATING FOOD INTAKE” (priority 2014, published 2016)
